How the values were obtained:
[1] = species: Rattus norvegicus; assay: Testosterone Eurofins-Panlabs radioligand binding assay; parameters: ligand concentration 1.5 nM; conditions: Compound concentration 10.0 uM
[2] = target: L-type calcium channel, benzothiazepine site (Cav1.2 alpha-1C) (Homo sapiens, UniProt Q13936); assay: Inhibition of Calcium Channel L-Type, Benzothiazepine at 10 µM in the Eurofins-Panlabs radioligand binding assay (Eurofins_assay_214510); parameters: ligand concentration 2 nM, non-specific ligand with concentration 10 µM Diltiazem, incubation time 3h, incubation temperature 4 °C; conditions: male, Wistar, rat, rat whole brain preparation, probe [3H] Diltiazem, 2 nM; compound concentration 10 uM; target entry is the homologue from another species
Sequence of L-type calcium channel, benzothiazepine site (Cav1.2 alpha-1C) (Q13936 whole entry): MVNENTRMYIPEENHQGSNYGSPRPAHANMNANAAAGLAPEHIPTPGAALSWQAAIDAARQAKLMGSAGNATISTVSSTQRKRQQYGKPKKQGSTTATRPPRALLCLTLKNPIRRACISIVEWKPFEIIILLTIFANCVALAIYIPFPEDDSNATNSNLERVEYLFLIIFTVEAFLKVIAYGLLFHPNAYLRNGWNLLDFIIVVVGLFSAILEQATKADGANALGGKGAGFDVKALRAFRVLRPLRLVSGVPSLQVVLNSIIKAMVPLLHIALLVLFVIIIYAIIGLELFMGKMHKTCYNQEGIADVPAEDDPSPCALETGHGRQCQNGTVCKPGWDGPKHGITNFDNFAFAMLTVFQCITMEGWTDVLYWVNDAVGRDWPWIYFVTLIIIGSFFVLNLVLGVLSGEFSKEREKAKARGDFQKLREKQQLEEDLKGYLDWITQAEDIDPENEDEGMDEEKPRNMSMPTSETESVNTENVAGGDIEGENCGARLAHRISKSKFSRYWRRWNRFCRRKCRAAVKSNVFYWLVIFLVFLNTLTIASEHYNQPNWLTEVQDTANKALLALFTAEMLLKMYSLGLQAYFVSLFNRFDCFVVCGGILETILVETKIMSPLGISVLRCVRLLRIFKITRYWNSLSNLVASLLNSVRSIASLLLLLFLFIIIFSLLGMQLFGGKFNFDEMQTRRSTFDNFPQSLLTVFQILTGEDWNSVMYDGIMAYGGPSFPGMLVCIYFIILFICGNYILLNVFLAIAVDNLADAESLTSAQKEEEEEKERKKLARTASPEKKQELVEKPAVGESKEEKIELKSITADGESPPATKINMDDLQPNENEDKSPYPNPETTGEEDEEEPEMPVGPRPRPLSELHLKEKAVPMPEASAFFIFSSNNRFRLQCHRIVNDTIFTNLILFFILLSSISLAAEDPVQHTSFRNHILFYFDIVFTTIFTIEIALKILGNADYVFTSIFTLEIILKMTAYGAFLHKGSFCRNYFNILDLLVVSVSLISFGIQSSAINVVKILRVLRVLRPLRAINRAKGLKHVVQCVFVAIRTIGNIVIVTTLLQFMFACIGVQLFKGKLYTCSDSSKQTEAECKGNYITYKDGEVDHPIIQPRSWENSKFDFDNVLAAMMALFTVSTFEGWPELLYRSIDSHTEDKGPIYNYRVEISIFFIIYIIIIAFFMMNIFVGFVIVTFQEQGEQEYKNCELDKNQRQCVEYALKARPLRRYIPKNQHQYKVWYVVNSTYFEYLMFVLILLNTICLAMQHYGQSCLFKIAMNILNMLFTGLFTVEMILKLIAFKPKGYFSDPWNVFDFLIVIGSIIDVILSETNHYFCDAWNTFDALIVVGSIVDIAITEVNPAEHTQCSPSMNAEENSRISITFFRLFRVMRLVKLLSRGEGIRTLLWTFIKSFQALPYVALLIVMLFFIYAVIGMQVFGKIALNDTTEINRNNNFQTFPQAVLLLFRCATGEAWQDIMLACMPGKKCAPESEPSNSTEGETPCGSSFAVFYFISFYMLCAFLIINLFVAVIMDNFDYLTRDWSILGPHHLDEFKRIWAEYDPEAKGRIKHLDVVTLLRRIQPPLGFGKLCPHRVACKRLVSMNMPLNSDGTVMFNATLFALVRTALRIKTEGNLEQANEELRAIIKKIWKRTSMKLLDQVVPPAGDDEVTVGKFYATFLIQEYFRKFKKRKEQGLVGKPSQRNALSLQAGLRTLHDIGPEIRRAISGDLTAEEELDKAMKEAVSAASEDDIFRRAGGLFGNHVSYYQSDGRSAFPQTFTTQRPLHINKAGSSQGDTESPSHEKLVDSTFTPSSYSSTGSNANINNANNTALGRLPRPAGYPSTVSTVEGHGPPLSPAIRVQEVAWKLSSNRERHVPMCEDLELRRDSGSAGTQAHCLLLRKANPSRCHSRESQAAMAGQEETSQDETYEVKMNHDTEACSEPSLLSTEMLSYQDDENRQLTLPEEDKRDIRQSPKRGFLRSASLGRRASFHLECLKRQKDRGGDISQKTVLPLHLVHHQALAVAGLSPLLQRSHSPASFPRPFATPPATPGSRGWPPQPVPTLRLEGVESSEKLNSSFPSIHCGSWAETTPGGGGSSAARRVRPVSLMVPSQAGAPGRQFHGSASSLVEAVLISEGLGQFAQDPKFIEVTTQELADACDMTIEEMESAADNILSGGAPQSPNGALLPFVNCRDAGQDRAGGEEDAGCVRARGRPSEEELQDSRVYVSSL

[3] = target: L-type calcium channel, dihydropyridine site (Cav1.2 alpha-1C) (Homo sapiens, UniProt Q13936); assay: Inhibition of Calcium Channel L-Type, Dihydropyridine at 10 µM in the Eurofins-Panlabs radioligand binding assay (Eurofins_assay_214600); parameters: ligand concentration 0.1 nM, non-specific ligand with concentration 1 µM Nitrendipine, incubation time 90 min, incubation temperature 25 °C; conditions: Wistar, rat, rat cerebral cortex preparation, probe [3H] Nitrendipine, 0.1 nM; compound concentration 10 uM; target entry is the homologue from another species
Sequence of L-type calcium channel, dihydropyridine site (Cav1.2 alpha-1C) (Q13936 whole entry): as above

[4] = target: T1, Cysteinyl leukotriene receptor 1 (Homo sapiens) (UniProt Q9Y271); assay: (§1) Inhibition of Leukotriene, Cysteinyl CysLT1 at 10 µM in the Eurofins-Panlabs radioligand binding assay (Eurofins_assay_250460); parameters: ligand concentration 0.3 nM, non-specific ligand with concentration 0.3 µM Leukotriene D4, incubation time 30 min, incubation temperature 25 °C
T1 sequence (whole entry): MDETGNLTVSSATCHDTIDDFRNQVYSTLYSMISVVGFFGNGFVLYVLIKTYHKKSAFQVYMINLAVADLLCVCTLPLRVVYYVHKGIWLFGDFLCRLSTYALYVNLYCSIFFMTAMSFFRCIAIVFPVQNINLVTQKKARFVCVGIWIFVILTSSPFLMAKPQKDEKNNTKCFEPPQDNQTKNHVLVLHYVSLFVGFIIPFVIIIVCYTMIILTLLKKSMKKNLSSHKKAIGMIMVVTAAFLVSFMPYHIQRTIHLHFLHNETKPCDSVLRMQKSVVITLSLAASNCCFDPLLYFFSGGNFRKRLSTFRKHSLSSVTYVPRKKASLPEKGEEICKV

[5] = target: Cysteinyl leukotriene receptor 1 (Homo sapiens, UniProt Q9Y271); assay: as §1; parameters: ligand concentration 0.3 nM, non-specific ligand with concentration 0.3 µM Leukotriene D4, incubation time 30 min, incubation temperature 25 °C
[6] = target: Sodium-dependent dopamine transporter (Homo sapiens, UniProt Q01959); assay: Inhibition of Transporter, Dopamine (DAT) at compound concentration of 10.0 uM in the Eurofins-Panlabs radioligand binding assay (Eurofins_assay_220320); parameters: ligand concentration 0.15 nM, non-specific ligand with concentration 10 uM Nomifensine, incubation time 3 h, incubation temperature 4 C
Sequence of Sodium-dependent dopamine transporter (Q01959 whole entry): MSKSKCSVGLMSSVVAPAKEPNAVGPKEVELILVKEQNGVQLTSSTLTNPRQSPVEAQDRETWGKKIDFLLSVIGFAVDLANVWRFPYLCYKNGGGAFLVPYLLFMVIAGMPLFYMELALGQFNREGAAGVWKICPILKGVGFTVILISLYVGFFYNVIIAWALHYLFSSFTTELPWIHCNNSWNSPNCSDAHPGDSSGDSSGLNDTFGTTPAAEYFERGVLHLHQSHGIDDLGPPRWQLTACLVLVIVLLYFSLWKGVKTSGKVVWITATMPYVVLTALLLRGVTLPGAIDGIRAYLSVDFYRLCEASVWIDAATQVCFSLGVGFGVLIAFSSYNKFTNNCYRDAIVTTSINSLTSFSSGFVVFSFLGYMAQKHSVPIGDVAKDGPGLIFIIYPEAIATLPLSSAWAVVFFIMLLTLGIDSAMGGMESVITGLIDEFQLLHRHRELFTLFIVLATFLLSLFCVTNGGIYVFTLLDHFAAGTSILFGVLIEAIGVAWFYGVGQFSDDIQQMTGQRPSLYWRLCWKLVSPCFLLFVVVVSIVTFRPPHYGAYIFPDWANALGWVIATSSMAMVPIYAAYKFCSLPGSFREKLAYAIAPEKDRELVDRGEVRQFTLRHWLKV

[7] = target: Caspase-1 (Homo sapiens) (UniProt P29466); assay: Inhibition of Peptidase, CASP1 (Caspase 1) at 10 µM in the Eurofins-Panlabs enzyme assay (Eurofins_assay_163000); conditions: Compound concentration 10.0 uM
[8] = target: Calcitonin receptor (Homo sapiens) (UniProt P30988); assay: Inhibition of Calcitonin at 10 µM in the Eurofins-Panlabs radioligand binding assay (Eurofins_assay_213610)
[9] = target: Melanocortin receptor 5 (Homo sapiens) (UniProt P33032); assay: Inhibition of Melanocortin MC5 at 10 µM in the Eurofins-Panlabs radioligand binding assay (Eurofins_assay_251400); parameters: ligand concentration 0.035 nM; conditions: Compound concentration 10.0 uM
Sequence of Melanocortin receptor 5 (Homo sapiens) (P33032 whole entry): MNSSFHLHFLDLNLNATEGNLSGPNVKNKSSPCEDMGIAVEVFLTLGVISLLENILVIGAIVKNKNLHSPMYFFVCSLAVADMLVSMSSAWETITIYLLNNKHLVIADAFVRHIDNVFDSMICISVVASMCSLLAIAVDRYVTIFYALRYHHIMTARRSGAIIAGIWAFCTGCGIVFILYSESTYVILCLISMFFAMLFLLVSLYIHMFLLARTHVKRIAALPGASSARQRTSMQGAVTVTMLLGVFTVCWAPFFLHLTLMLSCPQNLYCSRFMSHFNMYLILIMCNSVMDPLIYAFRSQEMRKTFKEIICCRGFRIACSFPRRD

[10] = target: T2, 5-hydroxytryptamine receptor 3A (Homo sapiens) (UniProt P46098); assay: Inhibition of Serotonin (5-Hydroxytryptamine) 5-HT3 at 10 µM in the Eurofins-Panlabs radioligand binding assay (Eurofins_assay_271910); parameters: ligand concentration 0.69 nM; conditions: Compound concentration 10.0 uM
T2 sequence (whole entry): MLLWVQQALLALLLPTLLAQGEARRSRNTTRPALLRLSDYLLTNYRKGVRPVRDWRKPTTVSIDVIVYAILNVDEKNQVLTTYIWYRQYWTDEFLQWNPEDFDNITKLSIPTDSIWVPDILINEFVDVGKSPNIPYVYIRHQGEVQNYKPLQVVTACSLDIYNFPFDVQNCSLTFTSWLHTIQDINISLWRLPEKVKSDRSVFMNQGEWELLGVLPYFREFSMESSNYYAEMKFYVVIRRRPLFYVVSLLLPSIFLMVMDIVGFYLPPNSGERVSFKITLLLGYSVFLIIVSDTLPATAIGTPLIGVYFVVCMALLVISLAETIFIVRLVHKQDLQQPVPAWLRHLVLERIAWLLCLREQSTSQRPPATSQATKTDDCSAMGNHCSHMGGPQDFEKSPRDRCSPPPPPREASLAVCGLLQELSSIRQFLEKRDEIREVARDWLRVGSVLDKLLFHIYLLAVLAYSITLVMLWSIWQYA

[11] = (§2) Protein Serine/Threonine Kinase, PKA, Non-Selective Eurofins-Panlabs enzyme assay; type: protein-complex assay, Bos taurus; parameters: substrate with concentration 370 µg/mL Histone Type III-S, incubation time 15 min, incubation temperature 25 °C
[12] = species: Bos taurus; assay: as §2; type: protein-complex assay; parameters: substrate with concentration 370 µg/mL Histone Type III-S, incubation time 15 min, incubation temperature 25 °C
[13] = target: Caspase-7 (Homo sapiens) (UniProt P55210); assay: Peptidase, CASP7 (Caspase 7) Eurofins-Panlabs enzyme assay; conditions: Compound concentration 10.0 uM
Sequence of Caspase-7 (Homo sapiens) (P55210 24-198 limits assumed): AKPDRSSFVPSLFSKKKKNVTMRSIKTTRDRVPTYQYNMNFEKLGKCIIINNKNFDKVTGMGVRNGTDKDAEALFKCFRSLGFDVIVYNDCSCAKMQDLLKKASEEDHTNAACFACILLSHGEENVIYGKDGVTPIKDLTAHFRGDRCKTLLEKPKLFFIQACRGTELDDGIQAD
Sequence of Caspase-7 (Homo sapiens) (P55210 207-303 limits assumed): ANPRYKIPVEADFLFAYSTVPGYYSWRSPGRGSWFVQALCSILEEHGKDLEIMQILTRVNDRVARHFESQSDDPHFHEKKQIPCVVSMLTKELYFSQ

[14] = target: Tyrosine-protein phosphatase non-receptor type 2 (Homo sapiens) (UniProt P17706); assay: Protein Tyrosine Phosphatase, PTPN2 (TCPTP) Eurofins-Panlabs enzyme assay; parameters: substrate with concentration DiFMUP, incubation time 60 min, incubation temperature 37 °C; conditions: Compound concentration 10.0 uM
Sequence of Tyrosine-protein phosphatase non-receptor type 2 (Homo sapiens) (P17706 whole entry): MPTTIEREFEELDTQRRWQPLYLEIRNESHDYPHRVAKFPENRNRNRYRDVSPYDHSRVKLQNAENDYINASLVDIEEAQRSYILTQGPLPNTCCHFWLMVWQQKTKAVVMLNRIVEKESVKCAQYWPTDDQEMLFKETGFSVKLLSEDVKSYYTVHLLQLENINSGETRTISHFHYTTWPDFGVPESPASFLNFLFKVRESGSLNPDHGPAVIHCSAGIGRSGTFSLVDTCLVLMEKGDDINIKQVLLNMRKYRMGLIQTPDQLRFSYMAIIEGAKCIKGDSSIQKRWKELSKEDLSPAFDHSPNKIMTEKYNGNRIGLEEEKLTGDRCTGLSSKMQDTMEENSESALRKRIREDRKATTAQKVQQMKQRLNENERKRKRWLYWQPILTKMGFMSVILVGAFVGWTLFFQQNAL

[15] = species: Rattus norvegicus; assay: Adrenergic α1, Non-selective Eurofins-Panlabs radioligand binding assay; type: protein assay; conditions: Compound concentration 10.0 uM
[16] = target: C-C chemokine receptor type 5 (Homo sapiens) (UniProt P51681); assay: Chemokine CCR5 Eurofins-Panlabs radioligand binding assay; conditions: Compound concentration 10.0 uM
Sequence of C-C chemokine receptor type 5 (Homo sapiens) (P51681 whole entry, looked up): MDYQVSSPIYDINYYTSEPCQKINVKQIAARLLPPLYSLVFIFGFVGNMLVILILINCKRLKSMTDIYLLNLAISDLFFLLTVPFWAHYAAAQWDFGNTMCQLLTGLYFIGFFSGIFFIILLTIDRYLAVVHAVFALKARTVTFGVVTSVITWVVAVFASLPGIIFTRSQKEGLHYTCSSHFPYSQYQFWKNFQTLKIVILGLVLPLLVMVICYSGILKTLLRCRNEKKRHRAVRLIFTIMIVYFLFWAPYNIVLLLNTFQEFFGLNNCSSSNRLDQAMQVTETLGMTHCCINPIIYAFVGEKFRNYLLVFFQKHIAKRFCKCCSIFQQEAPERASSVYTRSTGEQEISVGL

[17] = target: T3, D(4) dopamine receptor (Homo sapiens) (UniProt P21917); assay: Dopamine D4.4 Eurofins-Panlabs radioligand binding assay; parameters: ligand concentration 1.2 nM; conditions: Compound concentration 10.0 uM
T3 sequence (whole entry): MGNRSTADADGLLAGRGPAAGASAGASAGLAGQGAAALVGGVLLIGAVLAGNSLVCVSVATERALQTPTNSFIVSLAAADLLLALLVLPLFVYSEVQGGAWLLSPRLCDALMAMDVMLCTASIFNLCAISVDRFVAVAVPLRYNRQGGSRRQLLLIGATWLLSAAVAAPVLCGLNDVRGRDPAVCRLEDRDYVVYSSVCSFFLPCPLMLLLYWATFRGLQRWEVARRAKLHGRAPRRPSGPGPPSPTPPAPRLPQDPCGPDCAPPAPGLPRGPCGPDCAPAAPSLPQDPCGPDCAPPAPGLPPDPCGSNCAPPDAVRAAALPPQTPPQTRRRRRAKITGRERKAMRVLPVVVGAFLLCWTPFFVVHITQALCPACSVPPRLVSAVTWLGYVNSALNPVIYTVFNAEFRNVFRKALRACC

[18] = target: cGMP-specific 3',5'-cyclic phosphodiesterase (Homo sapiens, UniProt O76074)
[19] = target: Adenosine receptor A1 (Homo sapiens) (UniProt P30542); conditions: Compound concentration 10.0 uM
Sequence of Adenosine receptor A1 (Homo sapiens) (P30542 whole entry): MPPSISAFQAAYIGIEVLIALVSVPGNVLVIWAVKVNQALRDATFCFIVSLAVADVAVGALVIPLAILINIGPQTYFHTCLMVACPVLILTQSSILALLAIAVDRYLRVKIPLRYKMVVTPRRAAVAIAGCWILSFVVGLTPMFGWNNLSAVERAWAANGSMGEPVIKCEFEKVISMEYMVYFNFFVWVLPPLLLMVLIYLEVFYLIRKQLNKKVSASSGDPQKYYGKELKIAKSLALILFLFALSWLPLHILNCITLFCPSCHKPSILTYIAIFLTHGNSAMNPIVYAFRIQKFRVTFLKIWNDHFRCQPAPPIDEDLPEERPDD

[20] = target: Beta-1 adrenergic receptor (Homo sapiens) (UniProt P08588); conditions: Compound concentration 10.0 uM
[21] = target: D(3) dopamine receptor (Homo sapiens) (UniProt P35462)
Sequence of D(3) dopamine receptor (Homo sapiens) (P35462 whole entry): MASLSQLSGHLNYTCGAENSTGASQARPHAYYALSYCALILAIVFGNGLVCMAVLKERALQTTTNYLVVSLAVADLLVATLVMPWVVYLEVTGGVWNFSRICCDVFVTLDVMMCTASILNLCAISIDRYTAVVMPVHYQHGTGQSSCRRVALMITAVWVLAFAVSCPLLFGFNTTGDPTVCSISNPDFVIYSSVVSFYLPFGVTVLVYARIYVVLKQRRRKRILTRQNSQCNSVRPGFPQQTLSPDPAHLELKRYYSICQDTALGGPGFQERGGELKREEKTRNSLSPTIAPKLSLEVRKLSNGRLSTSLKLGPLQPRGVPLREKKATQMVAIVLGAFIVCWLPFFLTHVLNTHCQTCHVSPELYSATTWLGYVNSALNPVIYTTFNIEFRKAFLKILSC

[22] = target: Glutamate NMDA receptor (Rattus norvegicus) (UniProt P35439+Q00959+Q00960+Q00961+Q62645+Q8VHN2+Q9R1M7); conditions: Compound concentration 10.0 uM

Question: What does the source list for `O=C(O)c1cc(-c2ccc(C3CCNCC3)cc2)c2ccc(-c3ccc(C(F)(F)F)cc3)cc2c1` [PPTN]?
Answer: inhibition [1]: 26%; inhibition at 3 h, 10 µM [2]: 11% (not active); inhibition at 90 min, 10 µM [3]: 20% (not active); inhibition ([4]; Compound concentration 0.01 uM): 0%; inhibition ([4]; Compound concentration 0.1 uM): 13%; inhibition ([4]; Compound concentration 1.0 uM): 65%; inhibition ([4]; Compound concentration 10.0 uM): 97%; IC50 [5]: 0.56 µM; Ki [5]: 0.23 µM; IC50 [6]: 2.31 µM; Ki [6]: 1.83 µM; inhibition [7]: -1%; inhibition [8]: 5%; inhibition [9]: 41%; inhibition [10]: 8%; IC50 [11]: 11.4 µM; inhibition ([12]; Compound concentration 0.1 uM): -10%; inhibition ([12]; Compound concentration 1.0 uM): 9%; inhibition ([12]; Compound concentration 10.0 uM): 46%; inhibition ([12]; Compound concentration 100.0 uM): 91%; inhibition [13]: -6%; inhibition [14]: -4%; inhibition [15]: -4%; inhibition [16]: 4%; inhibition [17]: -8%; IC50 [18]: 38.2 µM; inhibition [19]: -2%; inhibition [20]: 3%; inhibition ([21]; Compound concentration 0.01 uM): 3%; inhibition ([21]; Compound concentration 0.1 uM): 1%; inhibition ([21]; Compound concentration 1.0 uM): 12%; inhibition ([21]; Compound concentration 10.0 uM): 56%; inhibition [22]: -4%

Source: ChEMBL document CHEMBL4507292 (2021)
